Laboratory results from US9119396B2, “Method for promoting plant growth” (SUMITOMO CHEMICAL COMPANY, LIMITED, priority 2011, dated 2015).

Assays:
Format in all cases: in vivo
Wheat (cultivar: Apogee) [1] = assay: Test Example 10: reduction of high-temperature stress by spraying treatment of wheat; conditions: spray solution 1 ppm, high-temperature stress 36° C./32° C. 7 days, 90 days after the stress treatment
Procedure: (§1) Evaluation Test for Reduction of High-Temperature Stress by Spraying Treatment of Wheat
(§2) Five wheat seeds were sown in the culture soil (AISAI) in each plastic pot and cultivated for 28 days in an artificial weather control room under the conditions of a temperature of 18° C. in daytime/15° C. in night, and an illuminance of 7,000 lux. Before the stress test, 3 individuals per pot were removed.
To 0.5 mg of the present compound 1 were added 120 mg of a mixture (weight ratio 1:1) of white carbon and ammonium polyoxyethylene alkyl ether sulfate and 300 μl of water. The mixture was finely ground by a wet grinding method to obtain a flowable formulation of the present compound 1. This flowable formulation was diluted with 500 ml of water. The mixture was diluted with RINO (manufactured by NIHON NOHYAKU CO., LTD) as a spreading agent to 5,000-fold dilution to obtain a spray solution containing 1 ppm of the present compound 1. […]
After the high-temperature stress treatment, the plants were cultivated in an artificial weather control room under the conditions of a temperature of 18° C. in daytime/15° C. in night, and a illuminance of 7,000 lux. Then, 90 days after the high-temperature stress treatment, the number and the weight of seeds in ears of the tested plants in 7 or 8 pots were measured, and the average values of the number and the weight of seeds per one ear were calculated. […]

[2] = tested on: Corn (cultivar: Kuromochi); assay: Test Example 3: reduction of low-temperature stress by treatment of corn seeds; conditions: corn seed treatment, low-temperature stress 2.5±1° C. 4 days, then 4 days at 27° C.
Procedure: Evaluation Test for Reduction of Low-Temperature Stress by Treatment of Corn Seeds Corn (cultivar: Kuromochi) A blank slurry solution containing 10% (V/V) color coat red (Becker Underwood, Inc.), 10% (V/V) CF-Clear (Becker Underwood, Inc.) and 1.66% Maxim 4FS (Syngenta) was prepared. A slurry solution was prepared by dissolving the present compound 1 in the blank slurry solution such that 0.5 g, 5 g or 50 g of the compound is applied to each 100 kg of corn seeds. In a 50-ml centrifuge tube (manufactured by BD Japan), 0.35 ml of the slurry solution was placed for each 14.4 g of corn seeds and stirred until the solution was dried, thereby coating the seeds. In addition, seeds were coated with the blank slurry solution and used as seeds for a non-treated group. One of the treated corn seeds was sown in culture soil (AISAI) in each pot (55 mm in diameter×58 mm in height) and cultivated for 10 days under the conditions of a temperature of 27° C., an illuminance of 5,000 lux, and a day length of 16 hours. The grown seedlings were used for the test. The pots at 10 days after the sowing were placed into an artificial weather control room (VHT-2-15P-NC2-S, manufactured by Nippon Medical & Chemical Instruments Co., Ltd) and cultivated for 4 days under the following conditions: • temperature: 2.5±1° C., day length: 16 hours, and illuminance: 5,000 lux. <Evaluation Method> After the low-temperature stress treatment, the plants were cultivated for 4 days under the conditions of a temperature of 27° C., an illuminance of 5,000 lux, and a day length of 16 hours. Then, the fresh weight of the overground part of the plants was measured. The experiment was performed in five replications for each treatment condition and the average weight per individual was calculated. As a result, the fresh weight of the overground part of plants in the treated group of applying 0.5 g, 5 g or 50 g of the present compound 1 to each 100 kg of seeds was much heavier than that in the non-treated group.

Wheat (cultivar: Apogee) [3] = assay: Test Example 7: reduction of high-temperature stress by spraying treatment of wheat; conditions: spray solution 100 ppm, high-temperature stress 36° C./32° C. 7 days, 60 days after sowing
Procedure: as §1, §2
To 0.5 mg of the present compound 1 were added 120 mg of a mixture (weight ratio 1:1) of white carbon and ammonium polyoxyethylene alkyl ether sulfate and 300 μl of water. The mixture was finely ground by a wet grinding method to obtain a flowable formulation of the present compound 1. This flowable formulation was diluted with […] of water. The mixture was diluted with RINO (manufactured by NIHON NOHYAKU CO., LTD) as a spreading agent to 5,000-fold dilution to obtain a spray solution containing 100 ppm of the present compound 1. […]
After the high-temperature stress treatment, the plants were cultivated in an artificial weather control room under the conditions of a temperature of 18° C. in daytime/15° C. in night, and a illuminance of 7,000 lux. Then, 60 days after the sowing, the fresh weight of seeds in ears of the tested plants in 7 or 8 pots were measured, and the average values of the weight of seeds of ears per one pot (3 individuals) were calculated. […]

COC(=O)c1cc2cc(C(F)(F)F)ccc2s1 [compound 1]
number of seeds per one ear vs non-treated group (Wheat (cultivar: Apogee) [1]): much larger
weight of seeds per one ear vs non-treated group (Wheat (cultivar: Apogee) [1]): much larger
fresh weight of the overground part of plants vs non-treated group ([2]; 0.5 g per 100 kg of seeds): much heavier
fresh weight of the overground part of plants vs non-treated group ([2]; 5 g per 100 kg of seeds): much heavier
fresh weight of the overground part of plants vs non-treated group ([2]; 50 g per 100 kg of seeds): much heavier
fresh weight of seeds of ears vs non-treated group (Wheat (cultivar: Apogee) [3]): much larger
